This note sets out measurements from ChEMBL document CHEMBL1146771, “Identification of purine inhibitors of phosphodiesterase 7 (PDE7)” (Bioorg Med Chem Lett, 2004).

Some results are limits rather than exact numbers.

Test [1] in a line: Inhibitory concentration ratio of PDE4 to that of PDE7.
A short description of test [2]: Inhibitory concentration ratio of PDE1 to that of PDE7.
Test [3] can be described thus: Inhibitory concentration ratio of PDE3 to that of PDE7.
The nature of test [4]: Inhibitory concentration ratio of PDE5 to that of PDE7.
Test [5] is described as follows: Inhibition of Phosphodiesterase 7.
Test [6] is described as follows: Inhibitory concentration ratio of PDE2 to that of PDE7.
Test [7] deals with T1, cGMP-dependent 3',5'-cyclic phosphodiesterase (Rattus norvegicus, UniProt Q01062).
T1 sequence (Q01062 whole entry): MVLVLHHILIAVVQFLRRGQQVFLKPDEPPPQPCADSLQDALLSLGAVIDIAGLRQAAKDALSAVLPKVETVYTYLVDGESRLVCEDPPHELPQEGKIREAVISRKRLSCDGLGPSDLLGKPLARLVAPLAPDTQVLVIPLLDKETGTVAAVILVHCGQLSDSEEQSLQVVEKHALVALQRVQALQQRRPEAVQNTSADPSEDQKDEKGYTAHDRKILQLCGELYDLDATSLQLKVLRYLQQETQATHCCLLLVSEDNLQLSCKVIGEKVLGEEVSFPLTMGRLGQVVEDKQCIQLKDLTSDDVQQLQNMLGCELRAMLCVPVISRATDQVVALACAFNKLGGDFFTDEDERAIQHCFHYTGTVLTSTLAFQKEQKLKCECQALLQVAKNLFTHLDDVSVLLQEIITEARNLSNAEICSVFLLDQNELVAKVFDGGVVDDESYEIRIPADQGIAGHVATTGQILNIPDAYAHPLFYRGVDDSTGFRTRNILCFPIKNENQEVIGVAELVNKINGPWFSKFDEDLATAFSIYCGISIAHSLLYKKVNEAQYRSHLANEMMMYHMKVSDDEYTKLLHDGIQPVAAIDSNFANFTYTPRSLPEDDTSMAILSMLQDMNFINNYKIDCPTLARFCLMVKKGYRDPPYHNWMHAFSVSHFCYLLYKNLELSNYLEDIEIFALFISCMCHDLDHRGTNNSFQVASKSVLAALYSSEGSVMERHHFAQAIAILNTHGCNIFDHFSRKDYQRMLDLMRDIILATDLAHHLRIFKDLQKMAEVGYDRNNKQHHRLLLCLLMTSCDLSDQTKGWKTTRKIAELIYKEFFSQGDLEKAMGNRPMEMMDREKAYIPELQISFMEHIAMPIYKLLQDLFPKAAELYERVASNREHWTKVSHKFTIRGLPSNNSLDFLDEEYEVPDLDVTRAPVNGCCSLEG
Nature of the test: Inhibitory concentration against phosphodiesterase 2 from rat kidney.

Test [8] concerns the target cGMP-specific 3',5'-cyclic phosphodiesterase (Homo sapiens, UniProt O76074). The test is described as follows: Inhibitory concentration against phosphodiesterase 5 (PDE5) from human platelet.
The target in another test is Phosphodiesterase 3 (Homo sapiens, UniProt Q14432+Q13370). Nature of the test: Inhibitory concentration against phosphodiesterase 3 from human platelet.
The target of a further test is Phosphodiesterase 1 (Bos taurus, UniProt Q01061+P14100). The test is described as follows: Inhibitory concentration against phosphodiesterase 1 from bovine, calmodulin. The class given is protein assay.
For test [9], the species on record is Rattus norvegicus.
The species entered for test [10] is Rattus norvegicus. The test is described as follows: Inhibition of Phosphodiesterase 7 at 1 uM.

Turning to `CCn1cnc2nc(Nc3nc(C)c(C(=O)Nc4ccccc4)s3)nc(NCc3ccc(OC)c(OC)c3)c21`, the Ratio in test [1] is 7; in test [2], 12; in test [3], 12; in test [4], 1.1; in test [6], 11. Moreover, the midpoint of inhibition in test [5], the IC50, lay at 820 nM.
For the compound `CCOC(=O)c1sc(Nc2nc(NCc3ccc(S(C)(=O)=O)cc3)c3c(ncn3CC)n2)nc1C`, the Ratio is 22 in test [1]; 18 in test [2]; 130 in [3]; 0.9 in test [4]; 25 in test [6]. In [5], this compound had an IC50 of 55 nM.
For `CCCc1nn(C)c2c(=O)[nH]c(-c3cc(S(=O)(=O)N4CCN(C)CC4)ccc3OCC)nc12`, the IC50 in test [7] and in test [5] was > 10000 nM throughout.
Turning to `COc1cc(-c2ccc(=O)[nH]n2)ccc1OC(F)F` [ZARDAVERINE], the IC50 in test [7] is > 10000 nM; in [8] it was > 10000 nM; on Phosphodiesterase 3 it was 110 nM; in test [5] it was > 10000 nM; against Phosphodiesterase 1, > 10000 nM.
With `Nc1ncnc2c1ncn2[C@@H]1O[C@@H]2COP(=O)(O)O[C@H]2[C@H]1O`, the Km in the test filed under Rattus norvegicus [9] amounted to 0.2 µM.
`COc1nc2c([nH]1)c(=O)n(C)c(=O)n2CC(C)C`: the half-maximal inhibitory concentration (IC50) in [7] is > 10000 nM; in test [8], 3020 nM; at Phosphodiesterase 3 it was > 10000 nM; in test [5] it was > 10000 nM; on Phosphodiesterase 1, 1800 nM.
Turning to `CCOC(=O)c1sc(Nc2nc(NCc3ccc(OCc4ccccc4)c(OC)c3)c3c(ncn3CC)n2)nc1C`, the Ratio in test [1] was found to be 3.8; in test [2] it was 1.3; in [3], 2.5; in [4], 2.9; in test [6], 2.3. Also, in test [5], the IC50 turned out to be 940 nM.
For the compound `CCn1cnc2nc(Nc3nc(C)cs3)nc(NCc3ccc(OC)c(OC)c3)c21`, the inhibition in the test listed under Rattus norvegicus [10] was determined as 15%.
As to `CCOC(=O)c1sc(Nc2nc(NCc3cc(OC)c(OC)c(OC)c3)c3c(ncn3CC)n2)nc1C`, the Ratio in test [1] came out at 24; in test [2], 1.7; in [3], 33; in test [4] it was 15; in test [6], 14. Besides, the IC50 in [5] came to 100 nM.
Turning to `CCOC(=O)c1sc(Nc2nc(NS(=O)(=O)c3ccc(S(C)(=O)=O)cc3)c3ncn(CC)c3n2)nc1C`, the Ratio is 0.046 in test [1], 0.11 in test [3] and 0.55 in test [4]. This compound displayed an IC50 in [5] of 1600 nM.
The compound `CCOC(=O)c1sc(Nc2nc(NCc3ccc(S(N)(=O)=O)cc3)c3c(ncn3CC)n2)nc1C` yielded an IC50 in test [5] of 11 nM.
Take `CCOC(=O)c1sc(Nc2nc(NCc3ccc(S(N)(=O)=O)cc3)c3ncn(CC)c3n2)nc1C`: the Ratio was 16 in test [1]; 200 in [2]; > 5000 in test [3]; 13 in [4]; 45 in [6]. Also, inhibition in [5] was half-maximal at 10 nM (IC50).
Turning to `CCOC(=O)c1sc(Nc2nc(N3CCc4cc(OC)c(OC)cc4C3)c3c(ncn3CC)n2)nc1C`, the Ratio in test [1] was 1.3; in [2] it was 2.8; in test [3] it was 17; in [4] it was 4.6; in test [6], 3.6. In test [5], this compound registered an IC50 of 150 nM.
With `CN(C(=O)CCCOc1ccc2[nH]c(=O)ccc2c1)C1CCCCC1` [CILOSTAMIDE], the IC50 in [7] was > 10000 nM; in test [8], 7150 nM; in [5] it was > 10000 nM; at Phosphodiesterase 1 it was > 10000 nM.
In the case of `CCOC(=O)c1sc(Nc2nc(NCc3ccc(OC)c(OC)c3)c3c(ncn3CC)n2)nc1C`, the IC50 was found to be 1700 nM in [7]; 270 nM in test [8]; 580 nM at Phosphodiesterase 3; 150 nM in test [5]; 220 nM on Phosphodiesterase 1.
As to `COc1ccc(C2CNC(=O)C2)cc1OC1CCCC1` (stereo not given) [ROLIPRAM], the half-maximal inhibitory concentration (IC50) (in test [7]; against Phosphodiesterase 3; in [5]; against Phosphodiesterase 1) was > 10000 nM throughout.
Take `CCOC(=O)c1sc(Nc2nc(NCc3ccc4c(c3)OCO4)c3c(ncn3CC)n2)nc1C`: the Ratio amounted to 19 in [2], 11 in [3] and 0.38 in test [4]. The compound also registered an IC50 in test [5] of 110 nM.
For the compound `CCOC(=O)c1sc(Nc2nc(OCc3ccc(S(C)(=O)=O)cc3)c3ncn(CC)c3n2)nc1C`, the Ratio in [3] came to 21; in test [4], 4.1. In test [5], this compound had a half-inhibitory concentration (IC50) of 370 nM.

As usually defined, the IC50 is the midpoint of a concentration-inhibition curve. As usually defined, the Km is the concentration of substrate that gives half-maximal velocity. In general, inhibition refers to the share of the control response that was lost under treatment. A low value points to a weak effect.
